Measured values: ChEMBL document CHEMBL3351337, “Cytotoxic 1,5-diaryl-3-oxo-1,5-pentadienes: an assessment and comparison of membrane permeability using Caco-2 and MDCK monolayers” (Bioorg Med Chem Lett, 2014)
Activity calls are given as the source filed them. The calls are words filed in the database; no cut-off is given here.

Experiments:
Caco-2 = test: Increase in permeability of lucifer yellow dye across human Caco2 cells; format: functional, cell-based
MDCK [1] = test: Increase in permeability of lucifer yellow dye across MDCK cells; format: functional, cell-based; conditions: Canis lupus familiaris
MDCK [2] = test: Cytotoxicity against MDCK cells assessed as reduction in cell viability; format: cell-based, Canis lupus familiaris; design: concentration or dose not given beside the values; conditions: dog
[3] = Cytotoxicity against human Caco2 cells assessed as reduction in cell viability; format: cell-based; conditions: Caco-2
[4] = Apparent permeability from apical to basolateral side in human Caco2 cells at 50 uM over 2 hrs by isocratic reverse phase HPLC method; format: ADME, cell-based; conditions: Caco-2
[5] = Apparent permeability from basolateral to apical side in human Caco2 cells at 50 uM over 2 hrs by isocratic reverse phase HPLC method; format: ADME, cell-based; conditions: Caco-2
[6] = Permeability ratio, ratio of permeability from apical to basolateral side over basolateral to apical side in human Caco2 cells at 50 uM over 2 hrs by isocratic reverse phase HPLC method; format: ADME, cell-based; conditions: caco-2, 2 h
[7] = Efflux ratio, ratio of permeability from basolateral to apical side over apical to basolateral side in human Caco2 cells at 50 uM over 2 hrs by isocratic reverse phase HPLC method; format: ADME, cell-based; conditions: Caco-2
[8] = Apparent permeability from apical to basolateral side in MDCK cells at 50 uM over 2 hrs by isocratic reverse phase HPLC method; format: ADME, cell-based, Canis lupus familiaris; conditions: dog
[9] = Apparent permeability from basolateral to apical side in MDCK cells at 50 uM over 2 hrs by isocratic reverse phase HPLC method; format: ADME, cell-based, Canis lupus familiaris; conditions: dog
MDCK [10] = test: Permeability ratio, ratio of permeability from apical to basolateral side over basolateral to apical side in MDCK cells at 50 uM over 2 hrs by isocratic reverse phase HPLC method; format: ADME, cell-based, Canis lupus familiaris; conditions: dog
[11] = (§1) Permeability ratio, ratio of permeability from basolateral to apical side over apical to basolateral side in MDCK cells at 50 uM over 2 hrs by isocratic reverse phase HPLC method; format: ADME, cell-based, Canis lupus familiaris; conditions: dog, MDCK
[12] = Ratio of apparent permeability from apical to basolateral side in MDCK cells to apparent permeability from apical to basolateral side in human Caco2 cells; format: ADME, cell-based; conditions: caco-2
[13] = Ratio of apparent permeability from basolateral to apical side in MDCK cells to apparent permeability from basolateral to apical side in human Caco2 cells; format: ADME, cell-based; conditions: caco-2
MDCK [14] = test: as §1; format: ADME, cell-based, Canis lupus familiaris; conditions: dog, mdck, 2 h, 50 µM

Row | Papp A→B at 2 h, 50 µM [4] | Papp B→A at 2 h, 50 µM [5] | Ratio [6] | efflux ratio at 2 h, 50 µM [7] | Papp A→B at 2 h, 50 µM [8] | Papp B→A at 2 h, 50 µM [9] | Ratio (MDCK [10]) | efflux ratio at 2 h, 50 µM [11] | Ratio [12] | Ratio [13] | Ratio (MDCK [14]) | Compound | Activity (Caco-2) | Activity (MDCK [1]) | Activity (MDCK [2]) | Activity [3]
1 | 3.53 ×10⁻⁶ cm/s | 0.6 ×10⁻⁶ cm/s | 5.88 | 0.17 | 3.54 ×10⁻⁶ cm/s | 0.36 ×10⁻⁶ cm/s | 9.83 | 0.1 | 1 | 0.6 |  | O=C1/C(=C/c2ccccc2F)CNC/C1=C\c1ccccc1F | inactive | Active | 4% | Non-toxic
2 | 14.4 ×10⁻⁶ cm/s | 4.12 ×10⁻⁶ cm/s | 3.5 | 0.29 | 22.2 ×10⁻⁶ cm/s | 8.7 ×10⁻⁶ cm/s | 2.55 | 0.39 | 1.54 | 2.11 |  | COc1ccc(/C=C2\CNC/C(=C\c3ccc(OC)c(OC)c3)C2=O)cc1OC | inactive | Active | 4% | Non-toxic
3 | 8.42 ×10⁻⁶ cm/s | 7.02 ×10⁻⁶ cm/s | 1.2 | 0.83 | 19.7 ×10⁻⁶ cm/s | 15.9 ×10⁻⁶ cm/s | 1.24 |  | 2.34 | 2.27 | 0.81 | CN(C)c1ccc(/C=C/C(=O)/C=C/c2ccc(N(C)C)cc2)cc1 | inactive | Active | 4% | Non-toxic
4 | 2.89 ×10⁻⁶ cm/s | 1.05 ×10⁻⁶ cm/s | 2.75 | 0.36 | 3.84 ×10⁻⁶ cm/s | 1.26 ×10⁻⁶ cm/s | 3.05 | 0.33 | 1.33 | 1.2 |  | O=C(/C=C/c1ccccc1)c1ccccc1 [CHALCONE] | inactive | Active | 4% | Non-toxic
5 | 23.4 ×10⁻⁶ cm/s | 7.22 ×10⁻⁶ cm/s | 3.24 | 0.31 | 14.7 ×10⁻⁶ cm/s | 6.28 ×10⁻⁶ cm/s | 2.34 | 0.43 | 0.63 | 0.87 |  | COc1cccc(/C=C2\CNC/C(=C\c3cccc(OC)c3OC)C2=O)c1OC | inactive | Active | 4% | Non-toxic
6 | 15.4 ×10⁻⁶ cm/s | 5.83 ×10⁻⁶ cm/s | 2.64 | 0.38 | 21.9 ×10⁻⁶ cm/s | 6.53 ×10⁻⁶ cm/s | 3.35 | 0.3 | 1.42 | 1.12 |  | O=C1/C(=C/c2cccc(O)c2)CNC/C1=C\c1cccc(O)c1 | inactive | Active | 4% | Non-toxic

Second part, the molecule before the results:

Row | Compound | Papp A→B at 2 h, 50 µM [4] | Papp B→A at 2 h, 50 µM [5] | Ratio [6] | efflux ratio at 2 h, 50 µM [7] | Papp A→B at 2 h, 50 µM [8] | Papp B→A at 2 h, 50 µM [9] | Ratio (MDCK [10]) | efflux ratio at 2 h, 50 µM [11] | Ratio [12] | Ratio [13] | Ratio (MDCK [14]) | Activity (Caco-2) | Activity (MDCK [1]) | Activity (MDCK [2]) | Activity [3]
7 | COc1ccccc1/C=C1\CNC/C(=C\c2ccccc2OC)C1=O | 32.5 ×10⁻⁶ cm/s | 10.4 ×10⁻⁶ cm/s | 3.13 | 0.32 | 28.7 ×10⁻⁶ cm/s | 13.9 ×10⁻⁶ cm/s | 2.06 | 0.48 | 0.88 | 1.34 |  | inactive | Active | 4% | Non-toxic
8 | CCOC(=O)c1ccc(/C=C2\CNC/C(=C\c3ccc(C(=O)OCC)cc3)C2=O)cc1 | 2.82 ×10⁻⁶ cm/s | 0.99 ×10⁻⁶ cm/s | 2.85 | 0.35 | 2.7 ×10⁻⁶ cm/s | 0.99 ×10⁻⁶ cm/s | 2.73 | 0.37 | 0.96 | 1 |  | inactive | Active | 4% | Non-toxic
9 | CCOP(=O)(OCC)N1C/C(=C\c2ccc(OC)c(OC)c2)C(=O)/C(=C/c2ccc(OC)c(OC)c2)C1 | 54.7 ×10⁻⁶ cm/s | 8.17 ×10⁻⁶ cm/s | 6.7 | 0.15 | 62.3 ×10⁻⁶ cm/s | 27.7 ×10⁻⁶ cm/s | 2.25 | 0.44 | 1.14 | 3.39 |  | inactive | Active | 4% | Non-toxic
10 | CCOP(=O)(OCC)N1C/C(=C\c2cc(OC)c(OC)c(OC)c2)C(=O)/C(=C/c2cc(OC)c(OC)c(OC)c2)C1 | 28.5 ×10⁻⁶ cm/s | 8.82 ×10⁻⁶ cm/s | 3.23 | 0.31 | 105 ×10⁻⁶ cm/s | 50.3 ×10⁻⁶ cm/s | 2.08 | 0.48 | 3.68 | 5.73 |  | inactive | Active | 4% | Non-toxic
